ChEMBL document CHEMBL4406807, “Discovery of 3,4,6-Trisubstituted Piperidine Derivatives as Orally Active, Low hERG Blocking Akt Inhibitors via Conformational Restriction and Structure-Based Design” (J Med Chem, 2019)

Legend:
[1] = system: OVCAR-8; assay: Antiproliferative activity against human OVCAR8 cells; assay type: functional, cell-based
[2] = target: hERG (KCNH2) (Homo sapiens, UniProt Q12809); assay: Inhibition of ERG in human HEK293 cells at 3 uM at -80 mV holding potential by whole-cell patch clamp assay relative to control; assay type: cell-based; conditions: HEK293 cells expressing ERG
[3] = Microsomal stability in dog liver microsomes assessed as compound remaining at 100 ug/ml in presence of NADPH measured at 1.5 hrs by LC/MS analysis; assay type: ADME, Canis lupus familiaris, Microsome; conditions: read-out: Stability
[4] = Microsomal stability in monkey liver microsomes assessed as compound remaining at 100 ug/ml in presence of NADPH measured at 1.5 hrs by LC/MS analysis; assay type: ADME, Macaca mulatta, Microsome; conditions: rhesus monkey, read-out: Stability
[5] = target: Protein kinase C (PKC); assay: Inhibition of PKC (unknown origin); assay type: protein assay, Homo sapiens
[6] = target: Ribosomal protein S6 kinase alpha-1 (Homo sapiens, UniProt Q15418); assay: Inhibition of RSK1 (unknown origin) by mobility shift assay
[7] = Tmax in ICR mouse at 40 mg/kg, ig measured up to 48 hrs by LC-MS/MS analysis; assay type: ADME, organism-based; conditions: in vivo, po
[8] = Cmax in ICR mouse at 40 mg/kg, ig measured up to 48 hrs by LC-MS/MS analysis; assay type: ADME, organism-based; set-up: dose 40 mg/kg, route […]; conditions: in vivo, po
[9] = AUC (0 to t) in ICR mouse at 40 mg/kg, ig measured up to 48 hrs by LC-MS/MS analysis; assay type: ADME, organism-based; set-up: time < 48 hr, dose 40 mg/kg, route […]; conditions: in vivo, po
[10] = AUC (0 to infinity) in ICR mouse at 40 mg/kg, ig measured up to 48 hrs by LC-MS/MS analysis; assay type: ADME, organism-based; set-up: dose 40 mg/kg, time infinity, route […]; conditions: in vivo, po
[11] = MRT (0 to t) in ICR mouse at 40 mg/kg, ig measured up to 48 hrs by LC-MS/MS analysis; assay type: ADME, organism-based; conditions: in vivo, po
[12] = Volume of distribution in ICR mouse at 40 mg/kg, ig measured up to 48 hrs by LC-MS/MS analysis; assay type: ADME, organism-based; conditions: in vivo, po
[13] = Protein binding in mouse plasma at 300 ng/ml after 8 hrs by equilibrium dialysis; assay type: ADME, cell-free; conditions: read-out: PPB (converted)
[14] = Stability in mouse plasma at 100 ug/ml after 1 hr by LC/MS analysis; assay type: ADME, cell-free; conditions: read-out: Stability
[15] = Tmax in Sprague-Dawley rat at 40 mg/kg, ig measured up to 24 hrs by LC-MS/MS analysis; assay type: ADME, organism-based; conditions: in vivo, po
[16] = Half-life in Sprague-Dawley rat at 40 mg/kg, ig measured up to 24 hrs by LC-MS/MS analysis; assay type: ADME, organism-based; conditions: in vivo, po
[17] = AUC (0 to t) in Sprague-Dawley rat at 40 mg/kg, ig measured up to 24 hrs by LC-MS/MS analysis; assay type: ADME, organism-based; set-up: time < 24 hr, dose 40 mg/kg, route […]; conditions: in vivo, po
[18] = MRT (0 to infinity) in Sprague-Dawley rat at 40 mg/kg, ig measured up to 24 hrs by LC-MS/MS analysis; assay type: ADME, organism-based; conditions: in vivo, po
[19] = Oral bioavailability in ICR mouse at 40 mg/kg measured up to 48 hrs by LC-MS/MS analysis; assay type: ADME, organism-based; conditions: in vivo
[20] = system: SK-OV-3; assay: Induction of apoptosis in human SKOV3 cells at 10 uM by FACS based flow cytometric analysis (reference value: 7.63%); assay type: functional
[21] = Toxicity in ICR mouse assessed as induction of intestinal hemorrhage at 80 to 160 mg/kg, ig; assay type: organism-based; conditions: in vivo, po
[22] = system: SK-OV-3; assay: Antitumor activity against human SKOV3 cells xenografted in BALB/c nude mouse assessed as tumor growth inhibition at 40 mg/kg, po BID for 21 days; assay type: functional; conditions: SK-OV-3, po, 504 h, read-out: TGI
[23] = system: SK-OV-3; assay: Antitumor activity against human SKOV3 cells xenografted in BALB/c nude mouse assessed as tumor growth inhibition at 80 mg/kg, po administered once daily for 21 days relative to control; assay type: functional; conditions: SK-OV-3, po, 504 h, read-out: TGI
[24] = Toxicity in BALB/c nude mouse xenografted with human SKOV3 cells assessed as reduction in mouse survival at 60 to 80 mg/kg, po administered once daily for 21 days; assay type: organism-based; conditions: in vivo, 504 h
[25] = Drug level in tumor of human SKOV3 cells xenografted in BALB/c nude mouse at 50 mg/kg administered for 7 consecutive days; assay type: ADME, organism-based, Neoplasm; conditions: in vivo
[26] = target: Cystic fibrosis transmembrane conductance regulator (Homo sapiens, UniProt P13569); assay: Inhibition of CFTR (unknown origin)
[27] = target: Sodium channel protein type 9 subunit alpha (Homo sapiens, UniProt Q15858); assay: Inhibition of Nav1.7 (unknown origin)
[28] = target: Potassium voltage-gated channel subfamily A member 10 (Homo sapiens, UniProt Q16322); assay: Inhibition of Kv1.8 (unknown origin) at 3 uM relative to control
[29] = target: Potassium voltage-gated channel subfamily A member 4 (Homo sapiens, UniProt P22459); assay: Inhibition of Kv1.4 (unknown origin) at 3 uM relative to control
[30] = target: Potassium voltage-gated channel subfamily A member 5 (Homo sapiens, UniProt P22460); assay: Inhibition of Kv1.5 (unknown origin) at 3 uM relative to control
[31] = target: Potassium voltage-gated channel subfamily A member 7 (Homo sapiens, UniProt Q96RP8); assay: Inhibition of Kv1.7 (unknown origin) at 3 uM relative to control
[32] = target: Potassium/sodium hyperpolarization-activated cyclic nucleotide-gated channel 1 (Homo sapiens, UniProt O60741); assay: Inhibition of HCN1 (unknown origin) at 3 uM relative to control
[33] = target: Potassium/sodium hyperpolarization-activated cyclic nucleotide-gated channel 4 (Homo sapiens, UniProt Q9Y3Q4); assay: Inhibition of HCN4 (unknown origin) at 3 uM relative to control
[34] = Toxicity in ICR mouse assessed as reduction in organ to brain weight ratio of thymus at 80 to 160 mg/kg, ig once daily for 7 days; assay type: organism-based; conditions: in vivo, po, 168 h
[35] = target: RAC-alpha serine/threonine-protein kinase (Homo sapiens, UniProt P31749)
Description: Inhibition of human Akt1 expressed in Escherichia coli using STK Substrate 2-biotin as substrate incubated for 1 hr by HTRF assay

[36] = system: HCT-116; assay: cells; conditions: Homo sapiens, HCT-116, 72 h

Chain of Cystic fibrosis transmembrane conductance regulator (P13569 whole entry): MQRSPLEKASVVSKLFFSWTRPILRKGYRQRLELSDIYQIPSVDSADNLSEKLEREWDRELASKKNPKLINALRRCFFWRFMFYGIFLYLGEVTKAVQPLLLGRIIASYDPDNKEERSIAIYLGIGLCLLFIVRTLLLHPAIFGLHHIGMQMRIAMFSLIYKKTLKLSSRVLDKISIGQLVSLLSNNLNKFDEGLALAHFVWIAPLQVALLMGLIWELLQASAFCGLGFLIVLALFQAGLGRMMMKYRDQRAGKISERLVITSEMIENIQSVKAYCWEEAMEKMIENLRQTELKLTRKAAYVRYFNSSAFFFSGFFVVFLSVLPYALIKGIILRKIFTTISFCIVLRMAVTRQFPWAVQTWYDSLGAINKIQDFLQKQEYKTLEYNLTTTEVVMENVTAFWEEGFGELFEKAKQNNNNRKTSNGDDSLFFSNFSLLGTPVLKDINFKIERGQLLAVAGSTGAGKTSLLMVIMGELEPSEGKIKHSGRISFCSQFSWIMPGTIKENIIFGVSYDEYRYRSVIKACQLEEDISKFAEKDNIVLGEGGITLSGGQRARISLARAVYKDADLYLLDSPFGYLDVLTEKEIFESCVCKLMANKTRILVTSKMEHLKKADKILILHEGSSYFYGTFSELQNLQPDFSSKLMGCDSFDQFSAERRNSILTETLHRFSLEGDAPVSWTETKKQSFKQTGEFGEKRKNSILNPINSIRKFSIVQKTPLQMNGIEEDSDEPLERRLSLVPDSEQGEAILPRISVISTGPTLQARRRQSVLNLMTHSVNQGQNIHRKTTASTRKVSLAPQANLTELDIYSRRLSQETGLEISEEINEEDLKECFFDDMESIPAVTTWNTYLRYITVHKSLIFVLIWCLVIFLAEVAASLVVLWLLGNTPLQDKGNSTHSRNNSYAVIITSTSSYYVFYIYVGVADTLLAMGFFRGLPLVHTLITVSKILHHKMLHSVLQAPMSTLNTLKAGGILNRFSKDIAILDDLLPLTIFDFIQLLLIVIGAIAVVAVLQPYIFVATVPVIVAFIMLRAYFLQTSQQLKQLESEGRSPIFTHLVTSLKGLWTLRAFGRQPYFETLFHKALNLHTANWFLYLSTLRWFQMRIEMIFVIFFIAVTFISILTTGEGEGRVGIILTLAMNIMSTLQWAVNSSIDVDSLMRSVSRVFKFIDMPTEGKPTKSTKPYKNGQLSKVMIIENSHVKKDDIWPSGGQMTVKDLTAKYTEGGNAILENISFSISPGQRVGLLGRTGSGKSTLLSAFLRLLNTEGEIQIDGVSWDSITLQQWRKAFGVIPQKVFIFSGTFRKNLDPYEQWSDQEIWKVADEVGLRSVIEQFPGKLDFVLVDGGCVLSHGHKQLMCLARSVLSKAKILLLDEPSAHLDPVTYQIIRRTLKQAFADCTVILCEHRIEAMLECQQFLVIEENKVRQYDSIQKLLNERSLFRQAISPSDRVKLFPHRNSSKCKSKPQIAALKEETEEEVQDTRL
Chain of Potassium voltage-gated channel subfamily A member 5 (P22460 whole entry): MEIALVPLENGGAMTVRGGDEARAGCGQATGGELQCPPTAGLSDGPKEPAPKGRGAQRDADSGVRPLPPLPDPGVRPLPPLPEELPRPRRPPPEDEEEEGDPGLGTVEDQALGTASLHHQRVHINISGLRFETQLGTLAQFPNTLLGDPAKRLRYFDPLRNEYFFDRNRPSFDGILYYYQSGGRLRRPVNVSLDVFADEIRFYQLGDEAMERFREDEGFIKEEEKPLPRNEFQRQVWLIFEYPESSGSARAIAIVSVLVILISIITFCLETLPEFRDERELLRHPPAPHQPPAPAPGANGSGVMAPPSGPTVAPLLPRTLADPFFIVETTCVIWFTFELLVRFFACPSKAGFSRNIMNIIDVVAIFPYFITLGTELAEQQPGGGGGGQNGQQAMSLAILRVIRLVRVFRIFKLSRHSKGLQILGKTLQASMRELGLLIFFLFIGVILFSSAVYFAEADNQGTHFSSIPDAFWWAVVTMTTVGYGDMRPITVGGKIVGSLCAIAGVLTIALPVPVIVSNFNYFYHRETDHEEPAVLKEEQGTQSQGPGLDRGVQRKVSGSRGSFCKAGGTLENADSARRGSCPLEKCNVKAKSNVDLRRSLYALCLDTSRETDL
Chain of Sodium channel protein type 9 subunit alpha (Q15858 whole entry): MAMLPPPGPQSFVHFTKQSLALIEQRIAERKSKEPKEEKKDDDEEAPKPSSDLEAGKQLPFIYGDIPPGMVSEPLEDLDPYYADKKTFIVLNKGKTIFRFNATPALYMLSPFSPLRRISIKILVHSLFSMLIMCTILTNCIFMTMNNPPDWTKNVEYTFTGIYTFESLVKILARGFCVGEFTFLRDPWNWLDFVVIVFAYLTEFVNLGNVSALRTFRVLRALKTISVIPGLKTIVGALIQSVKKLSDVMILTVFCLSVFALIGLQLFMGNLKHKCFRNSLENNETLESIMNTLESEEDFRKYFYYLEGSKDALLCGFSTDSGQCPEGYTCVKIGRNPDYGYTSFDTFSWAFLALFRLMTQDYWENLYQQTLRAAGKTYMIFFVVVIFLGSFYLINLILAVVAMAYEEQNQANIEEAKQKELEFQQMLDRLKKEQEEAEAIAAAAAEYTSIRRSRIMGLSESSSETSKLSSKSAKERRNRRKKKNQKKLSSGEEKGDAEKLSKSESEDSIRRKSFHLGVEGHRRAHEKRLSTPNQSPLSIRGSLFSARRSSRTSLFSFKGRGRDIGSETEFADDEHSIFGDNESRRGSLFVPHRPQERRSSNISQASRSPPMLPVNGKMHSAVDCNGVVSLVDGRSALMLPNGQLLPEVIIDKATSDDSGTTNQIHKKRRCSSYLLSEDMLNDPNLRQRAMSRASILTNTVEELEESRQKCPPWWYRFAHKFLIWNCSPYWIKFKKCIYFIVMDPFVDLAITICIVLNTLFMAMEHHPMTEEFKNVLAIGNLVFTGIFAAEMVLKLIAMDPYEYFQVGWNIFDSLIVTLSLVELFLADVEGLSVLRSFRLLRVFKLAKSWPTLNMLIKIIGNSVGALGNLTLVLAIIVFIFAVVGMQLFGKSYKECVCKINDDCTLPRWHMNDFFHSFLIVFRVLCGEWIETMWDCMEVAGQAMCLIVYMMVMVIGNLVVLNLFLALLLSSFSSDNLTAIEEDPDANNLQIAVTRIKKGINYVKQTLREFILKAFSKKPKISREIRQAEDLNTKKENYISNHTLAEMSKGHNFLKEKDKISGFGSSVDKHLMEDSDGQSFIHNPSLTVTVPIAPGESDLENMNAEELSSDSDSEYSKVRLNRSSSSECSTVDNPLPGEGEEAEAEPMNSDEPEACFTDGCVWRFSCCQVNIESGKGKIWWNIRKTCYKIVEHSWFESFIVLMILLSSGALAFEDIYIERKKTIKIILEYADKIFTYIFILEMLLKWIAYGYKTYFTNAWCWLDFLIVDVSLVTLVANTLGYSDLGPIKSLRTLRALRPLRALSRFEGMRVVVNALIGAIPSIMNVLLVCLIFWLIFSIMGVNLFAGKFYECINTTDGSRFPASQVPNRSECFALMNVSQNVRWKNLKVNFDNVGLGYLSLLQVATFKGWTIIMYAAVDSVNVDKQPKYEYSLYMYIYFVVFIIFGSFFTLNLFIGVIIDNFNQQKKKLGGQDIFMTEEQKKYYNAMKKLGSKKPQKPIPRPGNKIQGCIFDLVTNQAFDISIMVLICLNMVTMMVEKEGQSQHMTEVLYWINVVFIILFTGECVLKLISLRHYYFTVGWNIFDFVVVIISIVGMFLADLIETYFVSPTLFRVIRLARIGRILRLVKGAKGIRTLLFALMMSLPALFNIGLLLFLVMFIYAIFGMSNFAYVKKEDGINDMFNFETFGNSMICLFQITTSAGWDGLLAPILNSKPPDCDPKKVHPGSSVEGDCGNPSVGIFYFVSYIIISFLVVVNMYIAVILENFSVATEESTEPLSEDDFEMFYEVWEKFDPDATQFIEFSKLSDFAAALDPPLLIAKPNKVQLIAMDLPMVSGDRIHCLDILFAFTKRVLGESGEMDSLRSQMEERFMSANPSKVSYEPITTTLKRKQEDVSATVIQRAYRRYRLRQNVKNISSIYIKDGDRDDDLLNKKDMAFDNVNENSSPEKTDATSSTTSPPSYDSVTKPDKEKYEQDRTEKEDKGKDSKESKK
Chain of Potassium voltage-gated channel subfamily A member 10 (Q16322 whole entry): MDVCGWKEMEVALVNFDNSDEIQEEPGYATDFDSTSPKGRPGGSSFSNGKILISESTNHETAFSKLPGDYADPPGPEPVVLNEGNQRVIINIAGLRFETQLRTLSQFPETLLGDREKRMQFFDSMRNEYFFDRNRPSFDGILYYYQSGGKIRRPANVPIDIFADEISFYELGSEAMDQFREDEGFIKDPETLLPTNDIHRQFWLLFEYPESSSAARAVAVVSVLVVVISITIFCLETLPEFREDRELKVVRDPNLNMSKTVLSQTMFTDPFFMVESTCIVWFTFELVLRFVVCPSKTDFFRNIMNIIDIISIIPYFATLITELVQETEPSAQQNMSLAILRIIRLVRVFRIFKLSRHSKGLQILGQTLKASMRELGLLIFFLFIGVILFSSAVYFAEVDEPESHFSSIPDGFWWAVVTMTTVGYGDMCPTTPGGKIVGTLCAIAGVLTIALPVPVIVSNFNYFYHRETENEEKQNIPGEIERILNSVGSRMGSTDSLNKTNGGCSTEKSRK
Chain of RAC-alpha serine/threonine-protein kinase (P31749 whole entry): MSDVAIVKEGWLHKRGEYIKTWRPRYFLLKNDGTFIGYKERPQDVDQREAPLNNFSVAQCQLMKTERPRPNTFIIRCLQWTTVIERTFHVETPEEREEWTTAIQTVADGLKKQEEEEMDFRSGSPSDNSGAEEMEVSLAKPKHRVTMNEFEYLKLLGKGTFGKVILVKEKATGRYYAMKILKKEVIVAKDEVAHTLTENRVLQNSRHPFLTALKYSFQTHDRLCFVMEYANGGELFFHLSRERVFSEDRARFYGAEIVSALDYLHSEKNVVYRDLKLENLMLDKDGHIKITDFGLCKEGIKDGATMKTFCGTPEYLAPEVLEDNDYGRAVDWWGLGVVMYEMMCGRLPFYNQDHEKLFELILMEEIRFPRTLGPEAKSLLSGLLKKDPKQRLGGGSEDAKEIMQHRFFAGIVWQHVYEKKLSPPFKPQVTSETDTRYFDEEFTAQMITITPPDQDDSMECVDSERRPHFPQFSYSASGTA

## CNC(=O)C[C@@H]1C[C@@H](c2ccc(F)c(F)c2)[C@H](NC(=O)c2cc(-c3c(Cl)cnn3C)c(Cl)o2)CN1
[1]
  IC50: 800 nM
[2]
  inhibition at 3 µM: 4%
[3]
  remaining at 1.5 h, 100 ug/ml: 96%
[4]
  remaining at 1.5 h, 100 ug/ml: 84%
[5]
  IC50: 94 nM
[6]
  IC50: 131 nM
[7]
  Tmax: 1 h
[8]
  Cmax: 3620 ng/mL
[9]
  AUC(0-t) at 48 h: 21100 ng·h/mL
[10]
  AUC(0-inf): 21200 ng·h/mL
[11]
  MRT last at 48 h: 5.2 h
[12]
  Vd: 9 L/kg
[13]
  fraction unbound at 8 h, 300 ng/ml: 0.07
[14]
  remaining at 1 h, 100 ug/ml: > 99%
[15]
  Tmax: 1.8 h
[16]
  half-life: 6.4 h
[17]
  AUC(0-t) at 24 h: 2440 ng·h/mL
[18]
  MRT inf: 11.4 h
[19]
  bioavailability: 48.4%
[20]
  Activity: 79.9%
[21]
  Activity: Toxic
[22]
  inhibition in vivo at 40 mg/kg: 82.5%
[23]
  inhibition in vivo at 80 mg/kg: 90%
[24]
  Activity: Non-Toxic
[25]
  Drug uptake: 560 ng/mL
[26]
  inhibition (INH): Not Active
[27]
  inhibition (INH): Not Active
[28]
  inhibition (INH): Not Active
[29]
  inhibition (INH): Not Active
[30]
  inhibition (INH): Not Active
[31]
  inhibition (INH): Not Active
[32]
  inhibition (INH): Not Active
[33]
  inhibition (INH): Not Active
[34]
  Activity: Toxic
[35]
  IC50: 1.37 nM
[36]
  IC50: 1100 nM
